The values that follow come from paper PMC8198649, “Development of Halogenated Pyrazolines as Selective Monoamine Oxidase-B Inhibitors: Deciphering via Molecular Dynamics Approach” (Molecules, 2021).

Details of data set [1]: method as in PMID 12667689. Particulars: PAMPA-BBB; cited from earlier work. Background: The PAMPA barrier holds no transporters, so it reflects passive diffusion.
The target of another data set is T1, recombinant human MAO-A (Homo sapiens, UniProt P21397).
T1 construct: purchased Sigma-Aldrich (St. Louis, MO, USA)
T1 sequence (P21397 1-527): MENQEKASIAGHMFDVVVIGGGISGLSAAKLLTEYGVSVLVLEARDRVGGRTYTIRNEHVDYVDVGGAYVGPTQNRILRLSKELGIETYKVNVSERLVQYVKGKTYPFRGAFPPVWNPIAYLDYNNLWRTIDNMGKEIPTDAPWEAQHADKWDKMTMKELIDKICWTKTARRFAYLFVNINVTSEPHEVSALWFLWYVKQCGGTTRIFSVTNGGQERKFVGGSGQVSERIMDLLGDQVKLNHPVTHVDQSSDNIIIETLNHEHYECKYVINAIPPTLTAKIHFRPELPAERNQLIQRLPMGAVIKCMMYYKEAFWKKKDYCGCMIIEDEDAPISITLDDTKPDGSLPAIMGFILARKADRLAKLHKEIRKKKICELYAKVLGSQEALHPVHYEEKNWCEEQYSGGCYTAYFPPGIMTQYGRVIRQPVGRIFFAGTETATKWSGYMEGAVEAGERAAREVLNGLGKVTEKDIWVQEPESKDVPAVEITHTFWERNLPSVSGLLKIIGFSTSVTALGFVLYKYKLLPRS
Nature of the data set: MAO-A inhibition assay (kynuramine substrate) and kinetics. Conditions: for remaining activity at 10 µM: 10 µM compound, read-out: Residual Activity at 10 µM (%) MAO-A; for IC50: reference compounds after preincubation for 30 min with enzymes; for Ki: Lineweaver–Burk and secondary plots; for Type of MAO-A inhibition: Lineweaver–Burk plots. It counts as biochemical. From the text:
(§1) The enzymes and chemicals were purchased from Sigma-Aldrich (St. Louis, MO, USA).

Data set [2] deals with T2, MAO-B (Homo sapiens, UniProt P27338).
T2 construct: purchased Sigma-Aldrich (St. Louis, MO, USA)
T2 sequence (P27338 1-520): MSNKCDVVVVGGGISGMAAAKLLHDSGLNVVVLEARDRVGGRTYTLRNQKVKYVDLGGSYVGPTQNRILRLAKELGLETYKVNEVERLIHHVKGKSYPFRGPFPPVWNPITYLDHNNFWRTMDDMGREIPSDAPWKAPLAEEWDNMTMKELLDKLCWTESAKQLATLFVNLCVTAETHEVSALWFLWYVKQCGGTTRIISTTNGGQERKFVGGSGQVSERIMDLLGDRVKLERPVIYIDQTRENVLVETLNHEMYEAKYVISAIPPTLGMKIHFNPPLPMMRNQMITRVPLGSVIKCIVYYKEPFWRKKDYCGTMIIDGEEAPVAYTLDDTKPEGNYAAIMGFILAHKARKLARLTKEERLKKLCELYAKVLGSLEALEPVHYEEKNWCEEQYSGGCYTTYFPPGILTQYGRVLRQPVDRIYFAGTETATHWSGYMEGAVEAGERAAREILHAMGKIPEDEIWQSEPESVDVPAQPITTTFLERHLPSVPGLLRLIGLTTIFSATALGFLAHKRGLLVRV
In words: MAO-B inhibition assay (benzylamine substrate) and kinetics. It is filed as biochemical. Particulars: for remaining activity at 10 µM: 10 µM compound, read-out: Residual Activity at 10 µM (%) MAO-B; for IC50: reference compounds after preincubation for 30 min with enzymes; for Ki: Lineweaver–Burk and secondary plots; for Type of MAO-B inhibition: Lineweaver–Burk plots.
Source text: as §1

A further data set has as its target AChE (Electrophorus electricus, UniProt O42275). In words: AChE inhibition. It is filed as biochemical. Conditions: 10 µM compound; read-out: Residual Activity at 10 µM (%) AChE.
Data set [3] is described as follows: Parallel artificial membrane permeability assay (PAMPA), BBB. Conditions: for Papp: PAMPA.
Source text: The CNS bioavailability of the molecules was confirmed by a parallel artificial membrane permeability assay (PAMPA) [40].
The target in data set [4] is T2, MAO-B. In words: Reversibility of MAO-B inhibition by dialysis. It is filed as biochemical. On the procedure:
Reversibilities of EH7 were analyzed using a dialysis method after preincubating with MAO-B for 30 min, as previously described. […] The relative activities for undialyzed (AU) and dialyzed (AD) samples were compared to determine the reversibility patterns.

Each structure is given as a SMILES string.

Sequence of AChE (O42275 24-633): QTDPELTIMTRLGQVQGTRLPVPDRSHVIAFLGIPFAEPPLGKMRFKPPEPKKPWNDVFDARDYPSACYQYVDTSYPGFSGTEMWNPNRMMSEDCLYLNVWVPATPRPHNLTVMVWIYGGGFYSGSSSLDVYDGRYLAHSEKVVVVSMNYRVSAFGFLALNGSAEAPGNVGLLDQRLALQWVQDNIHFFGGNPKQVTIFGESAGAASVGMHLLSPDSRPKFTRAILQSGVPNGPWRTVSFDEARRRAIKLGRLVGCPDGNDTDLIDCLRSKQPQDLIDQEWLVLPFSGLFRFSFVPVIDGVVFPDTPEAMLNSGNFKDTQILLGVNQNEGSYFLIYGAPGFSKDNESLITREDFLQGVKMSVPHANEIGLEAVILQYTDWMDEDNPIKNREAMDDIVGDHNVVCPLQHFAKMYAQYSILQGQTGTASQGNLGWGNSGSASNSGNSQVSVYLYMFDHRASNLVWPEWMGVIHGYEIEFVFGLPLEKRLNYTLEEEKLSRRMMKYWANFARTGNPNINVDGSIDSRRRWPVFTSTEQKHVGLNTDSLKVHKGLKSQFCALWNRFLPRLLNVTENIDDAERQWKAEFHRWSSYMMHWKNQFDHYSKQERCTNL

On to `NCCc1ccc(O)c(O)c1` [Dopamine], for which, in data set [1], the “Bibliography Pe” value was 0.2 ×10⁻⁶ cm/s.

By IC50 is commonly meant the concentration at which inhibition is half-maximal. The term Papp denotes a coefficient for how fast a substance crosses the barrier. Low values mean poor permeation, high ones ready permeation. For the compound `CCOc1ccc(C2=NNC(c3ccccc3)C2)cc1` (stereo not shown) [EH1, 3-(4-ethoxyphenyl)-5-phenyl-4,5-dihydro-1H-pyrazole], the remaining activity at 10 µM at recombinant human MAO-A was determined as 99.1 ± 0.27%; on MAO-B [2] it was 33.7 ± 0.96%; on AChE it was 81 ± 6.21%. The IC50 on recombinant human MAO-A is > 40 µM; at MAO-B [2] it was 5.38 ± 0.16 µM. Moreover, at MAO-B [2], the “SI (selectivity index)” value was >7.43. The Papp in data set [3] turned out to be 10.3 ± 0.33 ×10⁻⁶ cm/s.

By Ki is commonly meant the equilibrium dissociation constant of an inhibitor or competing ligand from its target. As for `CCOc1ccc(C2=NNC(c3ccc(Cl)cc3)C2)cc1` (stereo not shown) [EH6, 5-(4-chlorophenyl)-3-(4-ethoxyphenyl)-4,5-dihydro-1H-pyrazole], at recombinant human MAO-A, the remaining activity at 10 µM amounted to 68.1 ± 0.18%, the Ki worked out at 10.8 ± 1.03 µM, the “Type of MAO-A inhibition” value is reported as “competitive inhibitor” and the IC50 came to 22.3 ± 0.12 µM. On MAO-B [2], the remaining activity at 10 µM was 19.4 ± 1.01%, the Ki was 0.19 ± 0.016 µM, the “Type of MAO-B inhibition” value was “competitive inhibitor” and the IC50 was 0.4 ± 0.051 µM. For the same compound, the remaining activity at 10 µM at AChE was 63.5 ± 4.99%. This compound registered a Papp in data set [3] of 14.3 ± 0.8 ×10⁻⁶ cm/s.

On to `CCOc1ccc(C2=NNC(c3ccc(F)cc3)C2)cc1` (stereo not shown) [EH7, 3-(4-ethoxyphenyl)-5-(4-fluorophenyl)-4,5-dihydro-1H-pyrazole], for which, on recombinant human MAO-A, the remaining activity at 10 µM was found to be 46.9 ± 1.25%, the Ki was found to be 3.64 ± 0.18 µM, the “Type of MAO-A inhibition” value is listed as “competitive inhibitor” and the IC50 stood at 8.38 ± 0.88 µM. In addition, at MAO-B [2], the “SI (selectivity index)” value was 133.0; the remaining activity at 10 µM came out at 4.03 ± 0.53%; the affinity, expressed as Ki, was 0.034 ± 0.0067 µM; the “Type of MAO-B inhibition” value is listed as “competitive inhibitor”. This compound also registered an IC50 on MAO-B [2] of 0.063 ± 0.0042 µM. In addition, at AChE, the remaining activity at 10 µM worked out at 74 ± 0.71%. Besides, the “Relative activity of undialyzed sample (AU)” value on MAO-B [4] (EH7 0.15 µM, lazabemide 0.20 µM, pargyline 0.30 µM, 30 min preincubation) turned out to be 12.5%. For the same compound, at MAO-B [4] (EH7 0.15 µM, lazabemide 0.20 µM, pargyline 0.30 µM, 30 min preincubation, dialysis), the “Relative activity of dialyzed sample (AD)” value is 89.5%. Moreover, the “Reversibility of MAO-B inhibition” value at MAO-B [4] (dialysis) was “reversible inhibitor”. The Papp in data set [3] was determined as 14.1 ± 0.71 ×10⁻⁶ cm/s.

`CCOc1ccc(C2=NNC(c3ccc(Br)cc3)C2)cc1` (stereo not shown) [EH8, 5-(4-bromophenyl)-3-(4-ethoxyphenyl)-4,5-dihydro-1H-pyrazole]: the remaining activity at 10 µM on recombinant human MAO-A came to 33.5 ± 0.65%; on MAO-B [2], 11.3 ± 0.13%; on AChE, 53.7 ± 2.15%. Moreover, the values for the IC50 at recombinant human MAO-A and on MAO-B [2] were 4.31 ± 0.013 µM and 0.69 ± 0.017 µM, respectively. Moreover, at MAO-B [2], the “SI (selectivity index)” value was found to be 6.3. Besides, the apparent permeability coefficient (Papp) in data set [3] stood at 14.6 ± 0.26 ×10⁻⁶ cm/s.

As to `CN1C(C(=O)Nc2ccccn2)=C(O)c2ccccc2S1(=O)=O` [Piroxicam, reference compound], in data set [1], the “Bibliography Pe” value is 2.5 ×10⁻⁶ cm/s. The same compound displayed a Papp in data set [3] of 2.43 ± 0.3 ×10⁻⁶ cm/s. Also, in data set [3] (PAMPA-BBB), the “Prediction (CNS permeability)” value was “CNS+/−”.

`CC(=O)[C@H]1CC[C@H]2[C@@H]3CCC4=CC(=O)CC[C@]4(C)[C@H]3CC[C@]12C` [Progesterone, reference compound]: in data set [3] (PAMPA-BBB), the “Experimental Pe” value was 9.02 ± 0.11 ×10^−6 cm/s.
